# Results reported in the OPERA property sets (Mansouri et al. 2018).
SMILES,boiling point,log10 vapour pressure (mmHg),melting point,ready biodegradability,log10 Koc (L/kg),log10 Henry constant (atm·m³/mol)
OCCN(CCO)CCO,335 °C,-5.44,20.5 °C,not readily biodegradable,,
O=C1NC(=O)C2CC=CCC12 (centres undefined),,,,not readily biodegradable,,
Cc1nccc2ccccc12,248 °C,,10 °C,,,
CC1=CCC(C(C)(C)O)C[C@@H]1O (some centres undefined),270 °C,,130 °C,,,
COC(=O)c1ccc(C(F)(F)F)nc1S(=O)(=O)[N]([Na])C(=O)Nc1nc(OC)cc(OC)n1,,,,,1.46,
CCC(C(=O)O)C1(O)CCCCC1 (centres undefined),,,81.5 °C,,,
Cc1cccc(C)c1NC(=O)C1CCCCN1C (centres undefined),,,150 °C,,,
O=C(O)CCCl,156 °C,,41 °C,,,
CCCCCCCCCCCCCCCCCC(=O)NCO,,,,readily biodegradable,,
CCN(CC)N=O,177 °C,-0.0655,,not readily biodegradable,,-5.44
Nc1ccccc1CO,273 °C,,83.5 °C,,,
CCCCN=C=S,168 °C,,,,,
O=C(O)c1cc(=O)cc(C(=O)O)o1,,,262 °C,,,
CCOc1ccccc1[N+](=O)[O-],267 °C,,2.2 °C,,,
CC(=O)[C@@]1(O)CC[C@H]2[C@@H]3C[C@H](C)C4=CC(=O)CC[C@]4(C)[C@H]3CC[C@@]21C,,,214 °C,,,
CCOC(=O)C(Br)CC (centres undefined),177 °C,,,,,
CN1C(=O)CCS(=O)(=O)C1c1ccc(Cl)cc1 (centres undefined),,,116 °C,,,
CCC1(c2ccccc2)C(=O)NC(=O)N(C)C1=O (centres undefined),,,176 °C,,,
COc1ccc(C=O)cc1,248 °C,-1.48,0 °C,readily biodegradable,,
CCCCCCCCCCCCCCCCCCCC(=O)O,328 °C,-8.74,75.4 °C,,,
Nc1ncnc2c1ncn2[C@@H]1O[C@H](CO)C[C@H]1O,,,226 °C,,,
CCCCCCCCON=O,174 °C,,,,,

SMILES,boiling point,log10 vapour pressure (mmHg),melting point,ready biodegradability,log10 Koc (L/kg),log10 Henry constant (atm·m³/mol)
FC(F)(F)CS,34.5 °C,,,,,
COc1cccc(O)c1O,,,42.8 °C,,,
CCCCCCCCCCCCCCCCCCCCCCCCCC(=O)OC,,,63.8 °C,,,
CCCOc1ccccc1O,227 °C,,,,,
CC=C(Br)Br,125 °C,,,,,
CC(=O)Nc1cccc(C(F)(F)F)c1,,,104 °C,,1.75,
CN1CCCc2ccccc21,246 °C,,,,,
O=C(O)CC(S)C(=O)O (centres undefined),,,149 °C,,,
FC(F)(F)C1(F)C(F)(F)C(F)(F)C(F)(F)C(F)(C(F)(F)F)C1(F)F (centres undefined),102 °C,,-70 °C,,,
Cc1cc(C)c(O)c(C)c1C,240 °C,,80.5 °C,,,
Cc1c(F)c(F)c(COC(=O)C2C(/C=C(\Cl)C(F)(F)F)C2(C)C)c(F)c1F (centres undefined),,-4.22,44.6 °C,,,
CC(c1ccccc1)C1CCCCC1 (centres undefined),265 °C,,,,,
CC#CC=CC,88.5 °C,,,,,
Ic1ccc2c(c1)Oc1ccccc1O2,,-4.5,95 °C,,,
COc1ccc2[nH]c(S(=O)Cc3ncc(C)c(OC)c3C)nc2c1 (centres undefined),,,156 °C,,,
c1cn[nH]c1,187 °C,,68 °C,,,
COC(=O)c1cccc(C(=O)OC)c1,282 °C,,67.5 °C,readily biodegradable,,
Nc1cc2c(cc1Cl)C(=O)c1ccccc1C2=O,,,282 °C,,,
CCC(=O)OCC1CCCO1 (centres undefined),206 °C,,,,,
NS(=O)(=O)c1cc2c(cc1Cl)NCNS2(=O)=O,,,274 °C,,,
Oc1c(Cl)c(Cl)cc(Cl)c1Cl,,,115 °C,,,
O=C1CCCCCCC1,196 °C,-0.389,29 °C,,,

SMILES,boiling point,log10 vapour pressure (mmHg),melting point,ready biodegradability,log10 Koc (L/kg),log10 Henry constant (atm·m³/mol)
C=CCC1CCCCC1,132 °C,,,,,
O=C(Nc1ccccc1)c1ccccc1O,,,136 °C,,,
CC(C)CC(C)(C)O,133 °C,,,,,
C#CC1(OC(N)=O)CCCCC1,,,96 °C,readily biodegradable,,
CCOC(C)(C)OCC,114 °C,,,,,
Cc1cc(O)c(C(C)(C)C)cc1Sc1cc(C(C)(C)C)c(O)cc1C,,,162 °C,not readily biodegradable,,
CCOc1cc(Oc2ccc(C(F)(F)F)cc2Cl)ccc1[N+](=O)[O-],358 °C,-6.7,84 °C,,5,
CCCC(C)(COC(N)=O)COC(N)=O,,,105 °C,,,
CC1(C)CC[C@]2(C(=O)O)[C@H](O)C[C@]3(C)C(=CC[C@@H]4[C@@]5(C)CC[C@H](O)[C@@](C)(C=O)[C@@H]5CC[C@]43C)[C@@H]2C1,,,294 °C,,,
CC(O)COCc1c(Cl)ccc(Cl)c1Cl (centres undefined),,-4,,,,
CCCN.Cl,,,161 °C,,,
Cc1ccc2ncccc2c1,259 °C,-2.19,-22 °C,,,
Fc1c(F)c(F)c(Br)c(Br)c1F,198 °C,,12 °C,,,
O=[N+]([O-])c1cccc(C(F)(F)F)c1,203 °C,-0.587,-2.4 °C,,,
O=C(NCCO[N+](=O)[O-])c1cccnc1,,,92.5 °C,,,
CCc1ccc(N)cc1,218 °C,-0.844,-4.8 °C,,,
O=C(O)CCCCCCCCCCO,,,65.5 °C,,,
O=C(OCC(COC(=O)c1ccccc1)OC(=O)c1ccccc1)c1ccccc1,,,76 °C,,,
CNC(=O)Nc1ccc(C)c(Cl)c1,,,,,2.1,
O=C(O)c1nn(Cc2ccc(Cl)cc2Cl)c2ccccc12,,,207 °C,,,
CC(C)(C)C(=O)OCOC(=O)[C@@H]1N2C(=O)[C@@H](N=CN3CCCCCC3)[C@H]2SC1(C)C,,,119 °C,,,
O=c1c(O)c(-c2ccccc2)oc2cc(O)cc(O)c12,,,214 °C,,,
